Test [1] concerns bacterial organisms present in patient urine sample. Kind of test: Antibiotic Resistance (ABR) assay utilizing liquid growth medium. The class given is cell-based. Particulars: liquid medium; for overall sensitivity of the bacteria in the sample to the antibiotic (in words): Example 4 sample. As for the experimental part:
Urine samples suitable for processing with this assay are collected, transported, and stored using BD Vacutainer tubes or other suitable leak-proof sterile containers. Urine samples may be held at room temperature for 48 hours before test results are compromised.
Antibiotic stocks are stored at 2-8° C. and protected from direct sunlight. Prepared antibiotic stock solutions were aliquoted into a 96-deep well plate (ThermoFisher Scientific) to form a 50× Antibiotic Source Plate and then diluted 1:5 to form a 10× Antibiotic Source Plate, as shown in FIG. 12 where each well is identified by antibiotic name and concentration (μg/mL; 10× final concentration). […] One well was assigned sodium azide to ensure no bacterial growth would be observed in that well.
Twenty microliters of each antibiotic solution were aliquoted into the pre-determined wells of a 96-well microplate (VIS 96/F-PS, Eppendorf) from the 10× Antibiotic Source Plate to create ABR testing plates for inoculation. These ABR testing plates were allowed to sit for up to 24 hours before use at 2-8° C. in the dark.
At the time of testing, urine samples were centrifuged to concentrate any bacterial cells and then mixed with liquid Mueller-Hinton medium and incubated for 6-16 hours at 37° C. After this initial incubation, the sample is diluted to 0.5-0.6 McF in saline and then 500 μl of that suspension was added to […] of Mueller-Hinton medium. One-hundred and eighty microliters of the diluted sample is then aliquoted to each well of the ABR microplate already containing 10× antibiotic solution, bringing all of the antibiotics to the desired final concentration. The plate is then sealed and incubated for 12-16 hours at 37° C.
After incubation, the plate was removed from the incubator and carefully uncovered and the OD600 was determined for each appropriate well by spectrophotometer. Five separate measurements were taken of each well on a plate and the mean OD600 measurement calculated for each well.
Controls are depicted in Table 10.
The raw data was then “blanked” using the measurement obtained from the Na-Azide well, as depicted in Table 14.
(§1) To determine whether bacterial organisms present in the patient samples were resistant or sensitive to a particular antibiotic at a certain concentration, blanked OD readings were compared to a threshold OD600 of 0.065 (Table 15). An OD measurement greater than or equal to this threshold was designated Resistant (R) meaning bacterial organisms present in patient sample were resistant to that particular antibiotic at that certain concentration. Any OD measurement less than this threshold was designated Sensitive (S) meaning bacterial organisms present in patient sample were sensitive to that particular antibiotic at that certain concentration.

Test [2] shares this test system. Kind of test: Antibiotic Resistance (ABR) assay utilizing agar-containing medium. In kind it is cell-based. As to conditions: for overall sensitivity of the bacteria in the sample to the antibiotic (in words): Example 2 sample. As for the experimental part: Urine samples suitable for processing with this assay are collected, transported, and stored using BD Vacutainer (gray top) tubes or other suitable leak-proof sterile container. Urine samples may be held at room temperature for 48 hours before test results are compromised.
Antibiotic stocks are stored at 2-8° C. and protected from direct sunlight. Prepared antibiotic stock solutions were aliquoted into a 96-deep well plate (Thermo Fisher Scientific) to form an Antibiotic Source Plate, as shown in FIG. 11 and identified by antibiotic name and concentration (μg/mL; 10× final concentration). […] One well was designated AB-blend which contained a combination of antibiotics to ensure there was no bacterial growth.
One hundred microliters of Mueller-Hinton agar medium was aliquoted into each appropriate well position of a 96-well microplate (VIS 96/F-PS, Eppendorf). The medium was allowed to solidify at room temperature for at least 10 min.
The antibiotics (10 μL) at various concentrations were then aliquoted into desired wells from the Antibiotic Source Plate. After the antibiotics were introduced to the agar medium, the ABR microplates were allowed to sit for at least 1 hr before use. If long-term storage is required, ABR microplates containing antibiotic-infuse agar are stored at 2-8° C. in the dark.
At the time of testing, urine samples were diluted 1:20 in sterile saline and vortexed. Each patient sample utilized a single ABR microplate. Five microliters of diluted patient sample were added to each well of the room temperature microplate, the plate was sealed and incubated for 16-18 hr at 37° C.
After incubation, the plate was removed from the incubator and carefully uncovered. Two-hundred microliters of deionized water were added to each well to suspend cells present above the agar and the plates incubated at room temperature for 30 min. After 30 min, 100 μl from each well was removed to a new plate and the OD600 was determined in a spectrophotometer. Five separate reads were taken of each plate and a mean OD600 measurement calculated.
Controls include: No-antibiotic control, Negative control plate, and AB-Blend. No antibiotic control: Any well containing medium that is not infused with antibiotics to ensure viability of bacterial cells present in patient urine samples and included in each plate. […] Negative control plate: Microplate containing antibiotic-infused agar medium without addition of patient sample or cultured bacterial organisms to ensure non-contamination of reagents. AB-Blend: One or more wells containing a combination of antibiotics to ensure there is no bacterial growth.
The raw data was then “blanked” using the measurement obtained from the AB-Blend well, as depicted in Table 5.
as §1, with “0.025” for “0.065”, “6). Any” for “15). An”

Data on 6 molecules can be found in US20210301315A1, “METHODS FOR TREATING POLYMICROBIAL INFECTIONS” (priority 2017, published 2021).

For `CO/N=C(\C(=O)N[C@@H]1C(=O)N2C(C(=O)O)=C(CSc3nc(=O)c(=O)[nH]n3C)CS[C@H]12)c1csc(N)n1` [Ceftriaxone, ceftriaxone], the “Blanked (OD600 minus Na-Azide well)” value in test [1] (antibiotic 1 μg/mL) is on record as 0.2028; in test [1] (antibiotic 4 μg/mL), 0.1900; in test [1] (antibiotic 8 μg/mL), 0.1992; in test [1] (antibiotic 64 μg/mL) it was 0.1899. Besides, the “Mean (OD600)” value in test [1] (antibiotic 1 μg/mL) stood at 0.2485; in test [1] (antibiotic 4 μg/mL), 0.2357; in test [1] (antibiotic 8 μg/mL) it was 0.2449; in test [1] (antibiotic 64 μg/mL) it was 0.2356; in test [2] (antibiotic 1 μg/mL) it was 0.0445; in test [2] (antibiotic 2 μg/mL), 0.0432. Further, the “Mean (OD600)” value in test [2] (antibiotic 4 μg/mL) is listed as 0.0405; in test [2] (antibiotic 8 μg/mL), 0.0392; in test [2] (antibiotic 32 μg/mL) it was 0.0386; in test [2] (antibiotic 64 μg/mL), 0.0385. The “overall sensitivity of the bacteria in the sample to the antibiotic (in words)” value (“overall sensitivity of the bacteria” below) in test [2] is on record as “sensitive”. Besides, the “Blanked (OD600 minus AB-Blend well)” value in test [2] (antibiotic 1 μg/mL) was 0.0061; in test [2] (antibiotic 2 μg/mL) it was 0.0048; in test [2] (antibiotic 4 μg/mL) it was 0.0021; in test [2] (antibiotic 8 μg/mL) it was 0.0008; in test [2] (antibiotic 16 μg/mL) it was 0.0007; in test [2] (antibiotic 32 μg/mL) it was 0.0002. Besides, the “Blanked (OD600 minus AB-Blend well)” value in test [2] (antibiotic 64 μg/mL) stood at 0.0001.
`C[C@@H](O)[C@H]1C(=O)N2C(C(=O)O)=C(S[C@@H]3CN[C@H](C(=O)N(C)C)C3)[C@H](C)[C@H]12` [Meropenem, meropenem]: the “Blanked (OD600 minus Na-Azide well)” value in test [1] (antibiotic 1 μg/mL) turned out to be 0.1741; in test [1] (antibiotic 2 μg/mL), 0.1471; in test [1] (antibiotic 4 μg/mL) it was 0.1099; in test [1] (antibiotic 8 μg/mL), 0.0039. In addition, the “Mean (OD600)” value in test [1] (antibiotic 1 μg/mL) is given as 0.2198; in test [1] (antibiotic 2 μg/mL) it was 0.1928; in test [1] (antibiotic 4 μg/mL) it was 0.1556; in test [1] (antibiotic 8 μg/mL) it was 0.0496; in test [2] (antibiotic 1 μg/mL), 0.0392; in test [2] (antibiotic 2 μg/mL) it was 0.0388. Also, the “Mean (OD600)” value in test [2] (antibiotic 4 μg/mL) is 0.0390; in test [2] (antibiotic 8 μg/mL), 0.0385. Also, the “overall sensitivity of the bacteria” value in test [2] is “sensitive”. The “Blanked (OD600 minus AB-Blend well)” value in test [2] (antibiotic 1 μg/mL) turned out to be 0.0008; in test [2] (antibiotic 2 μg/mL), 0.0004; in test [2] (antibiotic 4 μg/mL), 0.0006; in test [2] (antibiotic 8 μg/mL), 0.0001.
Regarding `O=C(O)c1cn(C2CC2)c2cc(N3CCNCC3)c(F)cc2c1=O` [Ciprofloxacin, ciprofloxacin], the figures for the “Blanked (OD600 minus Na-Azide well)” value in test [1] (antibiotic 1 μg/mL) and in test [1] (antibiotic 4 μg/mL) were −0.0016 and −0.0034, respectively. Moreover, the “Mean (OD600)” value in test [1] (antibiotic 1 μg/mL) is 0.0441; in test [1] (antibiotic 4 μg/mL) it was 0.0423; in test [2] (antibiotic 1 μg/mL), 0.0408; in test [2] (antibiotic 2 μg/mL), 0.0414; in test [2] (antibiotic 4 μg/mL), 0.0387. Moreover, the “overall sensitivity of the bacteria” value in test [1] and in test [2] was “sensitive” each time. The “Blanked (OD600 minus AB-Blend well)” value was 0.0024 in test [2] (antibiotic 1 μg/mL), 0.0030 in test [2] (antibiotic 2 μg/mL) and 0.0003 in test [2] (antibiotic 4 μg/mL).
For `CC1(C)S[C@@H]2[C@H](NC(=O)[C@H](N)c3ccccc3)C(=O)N2[C@H]1C(=O)O` [Ampicillin, ampicillin], the “Blanked (OD600 minus Na-Azide well)” value in test [1] (antibiotic 8 μg/mL) is given as −0.0040; in test [1] (antibiotic 16 μg/mL), −0.0038; in test [1] (antibiotic 32 μg/mL) it was −0.0039. Also, the “Mean (OD600)” value in test [1] (antibiotic 8 μg/mL) is 0.0417; in test [1] (antibiotic 16 μg/mL), 0.0419; in test [1] (antibiotic 32 μg/mL), 0.0418; in test [2] (antibiotic 8 μg/mL), 0.4880; in test [2] (antibiotic 16 μg/mL), 0.5222; in test [2] (antibiotic 32 μg/mL), 0.4824. Besides, the “overall sensitivity of the bacteria” value in test [1] was “sensitive”. Further, the “Blanked (OD600 minus AB-Blend well)” value was found to be 0.4496 in test [2] (antibiotic 8 μg/mL), 0.4838 in test [2] (antibiotic 16 μg/mL) and 0.4440 in test [2] (antibiotic 32 μg/mL).
With `CN[C@H](CC(C)C)C(=O)N[C@H]1C(=O)N[C@@H](CC(N)=O)C(=O)N[C@H]2C(=O)N[C@H]3C(=O)N[C@H](C(=O)N[C@H](C(=O)O)c4cc(O)cc(O)c4-c4cc3ccc4O)[C@H](O)c3ccc(c(Cl)c3)Oc3cc2cc(c3O[C@@H]2O[C@H](CO)[C@@H](O)[C@H](O)[C@H]2O[C@H]2C[C@](C)(N)[C@H](O)[C@H](C)O2)Oc2ccc(cc2Cl)[C@H]1O` [Vancomycin, vancomycin], the “Blanked (OD600 minus Na-Azide well)” value is 0.0047 in test [1] (antibiotic 1 μg/mL); −0.0022 in test [1] (antibiotic 2 μg/mL); −0.0032 in test [1] (antibiotic 4 μg/mL); −0.0026 in test [1] (antibiotic 16 μg/mL); −0.0031 in test [1] (antibiotic 32 μg/mL). For the same molecule, the “Mean (OD600)” value in test [1] (antibiotic 1 μg/mL) came to 0.0504; in test [1] (antibiotic 2 μg/mL), 0.0435; in test [1] (antibiotic 4 μg/mL), 0.0425; in test [1] (antibiotic 16 μg/mL), 0.0431; in test [1] (antibiotic 32 μg/mL), 0.0426; in test [2] (antibiotic 16 μg/mL), 0.4918. For the same molecule, the “overall sensitivity of the bacteria” value in test [1] is on record as “sensitive”.
Regarding `CO[C@@]1(NC(=O)Cc2cccs2)C(=O)N2C(C(=O)O)=C(COC(N)=O)CS[C@@H]21` [Cefoxitin, cefoxitin], the “Blanked (OD600 minus Na-Azide well)” value in test [1] (antibiotic 4 μg/mL) stood at 0.1745; in test [1] (antibiotic 8 μg/mL), 0.1831; in test [1] (antibiotic 32 μg/mL) it was 0.1891. For the same molecule, the “Mean (OD600)” value was 0.2202 in test [1] (antibiotic 4 μg/mL); 0.2288 in test [1] (antibiotic 8 μg/mL); 0.2348 in test [1] (antibiotic 32 μg/mL); 0.0401 in test [2] (antibiotic 4 μg/mL); 0.0392 in test [2] (antibiotic 8 μg/mL); 0.0389 in test [2] (antibiotic 16 μg/mL). In addition, in test [2] (antibiotic 32 μg/mL), the “Mean (OD600)” value is on record as 0.0389. Besides, the “overall sensitivity of the bacteria” value in test [2] is “sensitive”. The “Blanked (OD600 minus AB-Blend well)” value in test [2] (antibiotic 4 μg/mL) is listed as 0.0017; in test [2] (antibiotic 8 μg/mL), 0.0008; in test [2] (antibiotic 16 μg/mL), 0.0005; in test [2] (antibiotic 32 μg/mL) it was 0.0005.
